Literature values as cited in patent US20250339446A1 (Kessler Foundation Inc., priority 2016, published 2025).

Tests used:
[1] = system: bone mineral density (BMD); settings: rat, hind limb unweighting; cited from earlier work
[2] = system: BMD in the vertebrae; settings: men with idiopathic osteoporosis; cited from earlier work
[3] = system: muscle mass, muscle strength, and bone; settings: androgen-deficient men and older men with low testosterone levels; testosterone alone; cited from earlier work
[4] = daily administration; cited from earlier work

| Compound | immobilization-related decrease in BMD [1] | BMD in the vertebrae [2] | muscle mass, muscle strength, and bone [3] | absorption and elimination after transdermal application [4] |
| --- | --- | --- | --- | --- |
| C[C@]12CC[C@H]3[C@@H](CCC4=CC(=O)CC[C@@H]43)[C@@H]1CC[C@@H]2O [nandrolone] | blocked much of the immobilization-related decrease in BMD |  |  |  |
| C[C@]12CC[C@H]3[C@@H](CCC4=CC(=O)CC[C@@]43C)[C@@H]1CC[C@@H]2O [testosterone] | blocked much of the immobilization-related decrease in BMD | increased BMD in the vertebrae | increase muscle mass, muscle strength, and bone | absorbed and eliminated over the course of a day |
